Where “and” joins values, the source holds several entries; their conditions need not be identical. Identical values can stand only once. Like-named read-outs stand apart in the source and are kept apart here.
Columns and labels:
HT-29 = assay: cell viability in human CRC cell line HT-29; assay type: cell-based; conditions: ED Fig. 9h, replicates; for viability at 0.0137 µM / viability at 0.0412 µM / viability at 0.1235 µM / viability at 0.3704 µM / viability at 1.1111 µM / viability at 3.3333 µM / viability at 10 µM: Homo sapiens, read-out: HT-29 Cell viability (%); for viability at 0.0137 µM: HT-29, 0.0137 µM; for viability at 0.0412 µM: HT-29, 0.0412 µM; for viability at 0.1235 µM: HT-29, 0.1235 µM; for viability at 0.3704 µM: HT-29, 0.3704 µM; for viability at 1.1111 µM: HT-29, 1.1111 µM; for viability at 3.3333 µM: HT-29, 3.3333 µM; for viability at 10 µM: HT-29, 10.0000 µM
Protocol: To generate KAP^2D cells, KAP organoids were isolated from Matrigel, fragmented by mechanical dissociation and plated without any extracellular matrix on common cell culture dishes. Phoenix-Eco packaging cells (CRL-3214), HCT-15 (CCL-225), HCT 116 (CCL-247), COLO 205 (CCL-222), LS 174T (CL-188), RKO (CRL-2577) and HT-29 (HTB-38) were obtained from the American Type Culture Collection. The cells were cultured at 37 °C and 7% CO2 with RPMI (KAP^2D cells) or DMEM (other cell lines), supplemented with 10% FBS and penicillin–streptomycin. KAP^2D cells were authenticated using PCR (Kras locus and Trp53 locus). Phoenix-Eco packaging cells and HCT-15, HCT 116, COLO 205, LS 174T, RKO and HT-29 cells were authenticated by the provider using short tandem repeat profiling. No commonly misidentified cell lines were used. Mycoplasma contamination was excluded by a PCR-based analysis.
For in vitro treatment studies, organoids were mechanically dissociated and digested using TrypLE supplemented with 100 µg ml^−1 DNaseI and 10.5 µM Y-27632 dihydrochloride (Invitrogen) at 37 °C. A total of 1,000–2,000 single cells were plated per well in white 96-well plates (Greiner) in culture medium containing 10% GFR Matrigel or Cultrex BME. The treatment with doxycycline (5 µg ml^−1), pharmacological inhibitors or corresponding volumes of DMSO was started 24 h after plating. Doxycycline was obtained from Sigma-Aldrich. […] Cell viability was measured by means of CellTiter-Glo 3D or CellTiter-Glo 2.0 reagent (Promega) according to the manufacturers’ instructions and the Infinite M Plex reader (Tecan, i-control version 3.9.1 software). Results were normalized to vehicle (DMSO) or to shNC. For cell-doubling assays, the cell number was quantified at the corresponding time points using Guava EasyCyte flow cytometer (Luminex, CytoSoft v5.2 software).

KAP^2D cells [1] = assay: quantification of viable KAP^2D cells over time (cell-doubling assay); assay type: cell-based, mouse; conditions: Fig. 4i
Protocol: The treatment with doxycycline (5 µg ml^−1), pharmacological inhibitors or corresponding volumes of DMSO was started 24 h after plating. […] Cell viability was measured by means of CellTiter-Glo 3D or CellTiter-Glo 2.0 reagent (Promega) according to the manufacturers’ instructions and the Infinite M Plex reader (Tecan, i-control version 3.9.1 software). Results were normalized to vehicle (DMSO) or to shNC. For cell-doubling assays, the cell number was quantified at the corresponding time points using Guava EasyCyte flow cytometer (Luminex, CytoSoft v5.2 software).

KAP^2D cells [2] = assay: annexin V apoptosis analysis in KAP^2D cells; assay type: cell-based, mouse; conditions: Fig. 5a
Protocol: Apoptosis was analyzed with the FITC annexin V apoptosis detection kit (Biolegend). Both measurements were performed with FACS Canto II (BD) and physical parameters were used to exclude cell debris and cell doublets.

subcutaneous KAP CRCs = assay: treatment of subcutaneous KAP tumors in wild-type mice; assay type: in vivo, mouse; conditions: for Tumor volume (mm³): Fig. 1j, individual tumors
Protocol: (§1) Subcutaneous injection, splenic seeding or cecum injection of organoids was performed in 8–10-week-old C57BL/6 N/Crl, Rag2^−/− (B6.Cg-Rag2^tm1.1Cgn/J), or CB17 Scid beige (CB17.Cg-Prkdc^scidLyst^bg-J/Crl) mice, obtained from Charles River. The organoids were dissociated into single cells, washed with PBS and injected in a 1:1 mixture of PBS and Matrigel. For murine organoids, 1 × 10^5 cells were injected into the left and right flanks or the spleen capsule and 2 × 10^6 cells were injected into the cecum wall. For human organoids, 4 × 10^5 cells were injected into the flanks of CB17 Scid beige mice. For splenic seeding and cecum injection, mice were anaesthetized using ketamine (100 mg kg^−1, intraperitoneally) and xylazin (10 mg/kg, intraperitoneally) in NaCl and a small laparotomy below the thorax was performed.
(§2) No mice were excluded during treatment studies.

KAP liver metastasis = assay: survival of wild-type mice with KAP liver metastasis; assay type: in vivo, mouse
Protocol: as §1, §2

Compound: O=C(NCCN1CCOCC1)c1ccc2c(c1)C(=O)c1ccc(Nc3ccc(F)c(NC(=O)c4ccccc4)c3)cc1CC2 [Compound 1639]
- HT-29 Cell viability (%) (HT-29; 0.0412 µM, Repetition): 101.53% and 96.63%
- HT-29 Cell viability (%) (HT-29; 0.0412 µM, first experiment): 94.54% and 96.05%
- HT-29 Cell viability (%) (HT-29; 0.1235 µM, Repetition): 102.40% and 91.02%
- HT-29 Cell viability (%) (HT-29; 0.1235 µM, first experiment): 88.93% and 89.95%
- HT-29 Cell viability (%) (HT-29; 0.3704 µM, Repetition): 96.43% and 88.31%
- HT-29 Cell viability (%) (HT-29; 0.3704 µM, first experiment): 89.51% and 89.95%
- HT-29 Cell viability (%) (HT-29; 1.1111 µM, Repetition): 89.29% and 79.16%
- HT-29 Cell viability (%) (HT-29; 1.1111 µM, first experiment): 95.25% and 92.43%
- HT-29 Cell viability (%) (HT-29; 3.3333 µM, Repetition): 53.45% and 49.18%
- HT-29 Cell viability (%) (HT-29; 3.3333 µM, first experiment): 66.80% and 71.86%
- HT-29 Cell viability (%) (HT-29; 10.0000 µM, Repetition): 3.09% and 3.77%
- HT-29 Cell viability (%) (HT-29; 10.0000 µM, first experiment): 4.59% and 5.12%
- viability at 0.0137 µM (HT-29; Repetition): 102%
- viability at 0.0137 µM (HT-29; first experiment): 94.8%
- viability at 0.0412 µM (HT-29; Repetition): 105%
- viability at 0.0412 µM (HT-29; first experiment): 93.8%
- viability at 0.1235 µM (HT-29; Repetition): 104%
- viability at 0.1235 µM (HT-29; first experiment): 88.1%
- viability at 0.3704 µM (HT-29; Repetition): 95.8%
- viability at 0.3704 µM (HT-29; first experiment): 88.9%
- viability at 1.1111 µM (HT-29; Repetition): 88.5%
- viability at 1.1111 µM (HT-29; first experiment): 92.4%
- viability at 3.3333 µM (HT-29; Repetition): 52.9%
- viability at 3.3333 µM (HT-29; first experiment): 70.7%
- viability at 10 µM (HT-29; Repetition): 3.22%
- viability at 10 µM (HT-29; first experiment): 4.71%
- Number of cells (KAP^2D cells [1]; 0 h of treatment): 41307.05 and 44263.95 and 43595.63 and 48502.24 and 40389.64
- Number of cells (KAP^2D cells [1]; 12 h of treatment): 90535.27 and 109902.14 and 96345.55 and 78642.86 and 78628.27 and 80020.34
- Number of cells (KAP^2D cells [1]; 24 h of treatment): 118591.59 and 122111.73 and 126637.09 and 105052.10 and 107245.70 and 108446.50
- Number of cells (KAP^2D cells [1]; 36 h of treatment): 147204.34 and 141762.38 and 180655.61 and 129977.80 and 144707.50 and 146373.80
- Number of cells (KAP^2D cells [1]; 48 h of treatment): 236686.34 and 244575.91 and 256532.61 and 222624.00 and 201311.80 and 207320.10
- Number of cells (KAP^2D cells [1]; 60 h of treatment): 438717.24 and 412186.50 and 425643.09 and 324012.80 and 330875.70 and 354806.50
- Annexin V+ cells (KAP^2D cells [2]; 1 d of treatment): 8.73% and 12.40% and 11.20% and 14.50% and 15.70% and 14.40%
- Annexin V+ cells (KAP^2D cells [2]; 2 d of treatment): 12.80% and 17.60% and 14.40% and 15.50% and 16.80% and 17.40%
- Annexin V+ cells (KAP^2D cells [2]; 3 d of treatment): 16.10% and 14.80% and 15.90% and 19.00% and 17.40% and 18.40%
- Annexin V+ cells (KAP^2D cells [2]; 4 d of treatment): 26.70% and 25.10% and 21.50% and 18.80% and 17.30% and 19.40%
- Tumor volume (subcutaneous KAP CRCs; 0 d of treatment, single tumors, Fig. 3k): 56.0 mm³ and 75.0 mm³ and 48.0 mm³ and 80.0 mm³ and 62.5 mm³ and 40.0 mm³ and 64.0 mm³
- subcutaneous KAP tumor development (in words) (subcutaneous KAP CRCs; 20 mg kg^−1 daily, oral gavage): decelerated CRC development
- Tumor volume (mm³) (subcutaneous KAP CRCs; day 0 of treatment): 56.0 mm³ (2×) and 75.0 mm³ and 48.0 mm³ (3×) and 80.0 mm³ and 62.5 mm³ and 40.0 mm³ and 64.0 mm³
- Tumor volume (mm³) (subcutaneous KAP CRCs; day 2 of treatment): 75.0 mm³ (2×) and 87.5 mm³ and 62.5 mm³ and 125.0 mm³ and 56.0 mm³ (2×) and 72.0 mm³ and 48.0 mm³ and 64.0 mm³
- Tumor volume (mm³) (subcutaneous KAP CRCs; day 4 of treatment): 126.0 mm³ (2×) and 64.0 mm³ and 125.0 mm³ and 72.0 mm³ and 75.0 mm³ and 62.5 mm³ (2×) and 80.0 mm³ and 100.0 mm³
- Tumor volume (mm³) (subcutaneous KAP CRCs; day 6 of treatment): 144.0 mm³ (2×) and 75.0 mm³ (2×) and 112.5 mm³ and 80.0 mm³ and 62.5 mm³ and 56.0 mm³ and 87.5 mm³ and 126.0 mm³
- Tumor volume (mm³) (subcutaneous KAP CRCs; day 8 of treatment): 144.0 mm³ (2×) and 162.0 mm³ and 87.5 mm³ (2×) and 112.5 mm³ and 75.0 mm³ (3×) and 100.0 mm³
- Tumor volume (mm³) (subcutaneous KAP CRCs; day 10 of treatment): 162.0 mm³ and 180.0 mm³ and 87.5 mm³ (4×) and 108.0 mm³ (2×) and 75.0 mm³ and 171.5 mm³
- Tumor volume (mm³) (subcutaneous KAP CRCs; day 12 of treatment): 180.0 mm³ (2×) and 220.5 mm³ and 112.5 mm³ (3×) and 100.0 mm³ and 108.0 mm³ and 64.0 mm³ and 126.0 mm³
- survival / therapeutic efficacy in KAP liver metastasis (in words) (KAP liver metastasis; 20 mg kg^−1 daily, start 5 weeks after organoid inoculation): slight but nonsignificant survival benefit
- Survival (KAP liver metastasis; single animals, 1 = event, 0 = censored, Fig. 6e): 26 d of treatment and 29 d of treatment and 11 d of treatment and 12 d of treatment and 25 d of treatment and 27 d of treatment and 20 d of treatment
